Measurements reported in publication PMC10780633, “Novel Multi-Target Agents Based on the Privileged Structure of 4-Hydroxy-2-quinolinone” (Molecules, 2023).
One block for each compound: values may come before it.

Assays:
[1] = Non-enzymatic superoxide anion radical scavenging assay (PMS); details: 0.1 mM
Procedure: (§1) In this work, the carboxamides 3a–3u, the quinolinone–cinnamic or benzoic acid hybrids 11a–11g and the reverse amides 16a–16c were tested for their antioxidant activity via five in vitro techniques; (i) the interaction with the stable free radical 2,2-diphenyl-1-picrylhydrazyl (DPPH); (ii) the inhibition of lipid peroxidation; (iii) the hydroxyl radical scavenging ability; (iv) the 2,2-azino-bis(3-ethylbenzothiazoline-6-sulfonic acid (ABTS) radical cation (ABTS·^+) reduction; and (v) the superoxide anion radical scavenging ability.
The experimental technique used for this assay was performed according to our previous works. Caffeic acid was used as an appropriate standard.

[2] = Interaction with the stable free radical DPPH (reducing activity); details: for Interaction with the Free Radical DPPH (%): 100 μM; for DPPH radical scavenging activity, time not specified: reaction time not given
Procedure: as §1

[3] = Inhibition of lipid peroxidation of linoleic acid induced by AAPH radical; details: 100 μM
Procedure: as §1
The assay for the determination of the inhibition of linoleic acid peroxidation induced by the free radical initiator […](2-amidinopropane) dihydrochloride (AAPH) was performed according to the methods of Hadjipavlou-Litina et al., which we have also used in our previous works.

soybean lipoxygenase = molecular target: T1, soybean lipoxygenase (Glycine max, UniProt P08170); assay: Soybean LOX inhibition in vitro (UV absorbance-based assay); assay type: biochemical; details: for Inhibition of Soybean Lipoxygenase % at 0.1 mM / inhibition at 100 µM: 0.1 mM
T1 construct: purchased Sigma Chemical, Co. (St. Louis, MO, USA)
T1 sequence (P08170 1-839): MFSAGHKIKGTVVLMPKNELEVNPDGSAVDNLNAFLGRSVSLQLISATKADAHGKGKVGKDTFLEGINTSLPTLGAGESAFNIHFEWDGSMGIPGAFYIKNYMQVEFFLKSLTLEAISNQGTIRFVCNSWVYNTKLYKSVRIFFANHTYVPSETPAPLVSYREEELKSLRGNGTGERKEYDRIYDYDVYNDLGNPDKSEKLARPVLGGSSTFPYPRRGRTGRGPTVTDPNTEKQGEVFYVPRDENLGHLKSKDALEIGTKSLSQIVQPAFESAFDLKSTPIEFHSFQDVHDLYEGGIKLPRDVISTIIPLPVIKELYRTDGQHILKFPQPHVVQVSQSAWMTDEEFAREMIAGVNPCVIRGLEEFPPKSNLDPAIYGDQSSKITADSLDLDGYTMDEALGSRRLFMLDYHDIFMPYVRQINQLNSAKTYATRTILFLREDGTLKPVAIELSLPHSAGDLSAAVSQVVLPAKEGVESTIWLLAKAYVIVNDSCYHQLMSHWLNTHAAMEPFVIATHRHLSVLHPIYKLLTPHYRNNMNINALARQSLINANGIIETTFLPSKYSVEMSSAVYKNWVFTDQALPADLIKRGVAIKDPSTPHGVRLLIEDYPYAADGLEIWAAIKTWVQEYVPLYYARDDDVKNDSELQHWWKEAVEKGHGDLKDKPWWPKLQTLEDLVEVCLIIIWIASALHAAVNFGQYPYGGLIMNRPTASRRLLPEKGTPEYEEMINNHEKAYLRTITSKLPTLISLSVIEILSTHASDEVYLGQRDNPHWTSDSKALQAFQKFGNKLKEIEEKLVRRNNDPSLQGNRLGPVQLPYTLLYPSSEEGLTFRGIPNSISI
Procedure: For this study, the UV absorbance-based soybean LOX assay was used.
The assay for the determination of the inhibition of soybean LOX was performed according to the methods of Hadjipavlou-Litina et al., which we have also used in our previous works.

[4] = Competition with DMSO for hydroxyl radicals; details: 0.1 mM
Procedure: as §1
The assay was performed according to the methods of Pontiki et al. Trolox was used as a reference compound [78].

[5] = ABTS radical cation decolorization assay; details: 0.1 mM
Procedure: as §1
The experimental technique used in this section was performed according to the methods of Pontiki et al.. The results were compared to the appropriate standard inhibitor Trolox.

Compound: O=C(NCCO)c1c(O)c2ccccc2n(-c2ccccc2)c1=O [Compound 3d, 4-hydroxy-N-(2-hydroxyethyl)-2-oxo-1-phenyl-1,2-dihydroquinoline-3-carboxamide]
- PMS% (superoxide anion radical scavenging) [1]: 66.6%
- Interaction with the Free Radical DPPH (%) ([2]; 20 min): 15.9%
- Interaction with the Free Radical DPPH (%) ([2]; 60 min): 20.8%
- Inhibition of Lipid Peroxidation of Linoleic Acid Induced by AAPH Radical (%) [3]: 32.8%
- Inhibition of Soybean Lipoxygenase % at 0.1 mM (soybean lipoxygenase): inactive and no
- OH% (hydroxyl radical scavenging) [4]: no
- ABTS% (ABTS radical cation decolorization) [5]: no activity and no

Compound: O=C(Nc1ccc(O)cc1)c1c(O)c2ccccc2n(-c2ccccc2)c1=O [Compound 3g, 4-hydroxy-N-(4-hydroxyphenyl)-2-oxo-1-phenyl-1,2-dihydroquinoline-3-carboxamide]
- PMS% (superoxide anion radical scavenging) [1]: no
- Interaction with the Free Radical DPPH (%) ([2]; 20 min): 40.7%
- Interaction with the Free Radical DPPH (%) ([2]; 60 min): 51.7%
- Inhibition of Lipid Peroxidation of Linoleic Acid Induced by AAPH Radical (%) [3]: 100%
- IC50 (soybean lipoxygenase): 27.5 µM
- OH% (hydroxyl radical scavenging) [4]: 67.7%
- ABTS% (ABTS radical cation decolorization) [5]: 72.4%

Compound: CC1CCCCC1NC(=O)c1c(O)c2ccccc2n(-c2ccccc2)c1=O (stereo not drawn) [Compound 3i, 4-hydroxy-N-(2-methylcyclohexyl)-2-oxo-1-phenyl-1,2-dihydroquinoline-3-carboxamide]
- PMS% (superoxide anion radical scavenging) [1]: no
- Interaction with the Free Radical DPPH (%) ([2]; 20 min): 5.2%
- Interaction with the Free Radical DPPH (%) ([2]; 60 min): 3.7%
- Inhibition of Lipid Peroxidation of Linoleic Acid Induced by AAPH Radical (%) [3]: 36%
- Inhibition of Soybean Lipoxygenase % at 0.1 mM (soybean lipoxygenase): inactive and no
- OH% (hydroxyl radical scavenging) [4]: 78.1%
- ABTS% (ABTS radical cation decolorization) [5]: no

Compound: Cn1c(=O)c(C(=O)Nc2ccccc2O)c(O)c2ccccc21 [Compound 3j, 4-hydroxy-N-(2-hydroxyphenyl)-1-methyl-2-oxo-1,2-dihydroquinoline-3-carboxamide]
- PMS% (superoxide anion radical scavenging) [1]: no
- Interaction with the Free Radical DPPH (%) ([2]; 20 min): 32.5%
- Interaction with the Free Radical DPPH (%) ([2]; 60 min): 46.5%
- Inhibition of Lipid Peroxidation of Linoleic Acid Induced by AAPH Radical (%) [3]: 32.8%
- IC50 (soybean lipoxygenase): 100 µM
- OH% (hydroxyl radical scavenging) [4]: 100%
- ABTS% (ABTS radical cation decolorization) [5]: 49.7%

Compound: Cn1c(=O)c(C(=O)Nc2ccc(F)cc2)c(O)c2ccccc21 [Compound 3m, N-(4-fluorophenyl)-4-hydroxy-1-methyl-2-oxo-1,2-dihydroquinoline-3-carboxamide]
- PMS% (superoxide anion radical scavenging) [1]: no
- Interaction with the Free Radical DPPH (%) ([2]; 20 min): 3.1%
- Interaction with the Free Radical DPPH (%) ([2]; 60 min): 1.2%
- DPPH radical scavenging activity, time not specified [2]: inactive
- Inhibition of Lipid Peroxidation of Linoleic Acid Induced by AAPH Radical (%) [3]: 11.3%
- inhibition at 100 µM (soybean lipoxygenase): 15%
- OH% (hydroxyl radical scavenging) [4]: 94.0%
- ABTS% (ABTS radical cation decolorization) [5]: 12.4%

Compound: O=C(NCCc1ccc(O)cc1)c1c(O)c2ccccc2n(-c2ccccc2)c1=O [Compound 3n, 4-hydroxy-N-(4-hydroxyphenethyl)-2-oxo-1-phenyl-1,2-dihydroquinoline-3-carboxamide]
- PMS% (superoxide anion radical scavenging) [1]: no
- Interaction with the Free Radical DPPH (%) ([2]; 20 min): 13.9%
- Interaction with the Free Radical DPPH (%) ([2]; 60 min): 19.2%
- Inhibition of Lipid Peroxidation of Linoleic Acid Induced by AAPH Radical (%) [3]: 100%
- IC50 (soybean lipoxygenase): 85 µM
- OH% (hydroxyl radical scavenging) [4]: 14.9%
- ABTS% (ABTS radical cation decolorization) [5]: no

Compound: Cc1ccc(NC(=O)c2c(O)c3ccccc3n(-c3ccccc3)c2=O)cc1 [Compound 3r, 4-hydroxy-2-oxo-1-phenyl-N-(p-tolyl)-1,2-dihydroquinoline-3-carboxamide]
- PMS% (superoxide anion radical scavenging) [1]: no
- Interaction with the Free Radical DPPH (%) ([2]; 20 min): 12.1%
- Interaction with the Free Radical DPPH (%) ([2]; 60 min): 1.2%
- DPPH radical scavenging activity, time not specified [2]: inactive
- Inhibition of Lipid Peroxidation of Linoleic Acid Induced by AAPH Radical (%) [3]: 17.1%
- Inhibition of Soybean Lipoxygenase % at 0.1 mM (soybean lipoxygenase): 37.4%
- inhibition at 100 µM (soybean lipoxygenase): 37.5%
- OH% (hydroxyl radical scavenging) [4]: 50.7%
- ABTS% (ABTS radical cation decolorization) [5]: no

Compound: O=C(Nc1ccc(F)cc1)c1c(O)c2ccccc2n(-c2ccccc2)c1=O [Compound 3s, N-(4-fluorophenyl)-4-hydroxy-2-oxo-1-phenyl-1,2-dihydroquinoline-3-carboxamide]
- PMS% (superoxide anion radical scavenging) [1]: no
- Interaction with the Free Radical DPPH (%) ([2]; 20 min): 21.2%
- Interaction with the Free Radical DPPH (%) ([2]; 60 min): 8.1%
- DPPH radical scavenging activity, time not specified [2]: inactive
- Inhibition of Lipid Peroxidation of Linoleic Acid Induced by AAPH Radical (%) [3]: 28.9%
- IC50 (soybean lipoxygenase): 10 µM
- OH% (hydroxyl radical scavenging) [4]: 100%
- ABTS% (ABTS radical cation decolorization) [5]: no

Compound: Cn1c(=O)c(C(=O)Nc2ccncc2)c(O)c2ccccc21 [Compound 3t, 4-hydroxy-1-methyl-2-oxo-N-(pyridin-4-yl)-1,2-dihydroquinoline-3-carboxamide]
- PMS% (superoxide anion radical scavenging) [1]: no
- Interaction with the Free Radical DPPH (%) ([2]; 20 min): 19.7%
- Interaction with the Free Radical DPPH (%) ([2]; 60 min): 9.5%
- Inhibition of Lipid Peroxidation of Linoleic Acid Induced by AAPH Radical (%) [3]: 100%
- Inhibition of Soybean Lipoxygenase % at 0.1 mM (soybean lipoxygenase): inactive and no
- OH% (hydroxyl radical scavenging) [4]: inactive and no
- ABTS% (ABTS radical cation decolorization) [5]: no

Now from value to compound, other results behind:

- Inhibition of Soybean Lipoxygenase % at 0.1 mM (soybean lipoxygenase): no activity and no
Compound: CCCCCCCNC(=O)c1c(O)c2ccccc2n(C)c1=O [Compound 3e, N-heptyl-4-hydroxy-1-methyl-2-oxo-1,2-dihydroquinoline-3-carboxamide]
- PMS% (superoxide anion radical scavenging) [1]: 66.6%
- Interaction with the Free Radical DPPH (%) ([2]; 20 min): 6.6%
- Interaction with the Free Radical DPPH (%) ([2]; 60 min): 12.2%
- Inhibition of Lipid Peroxidation of Linoleic Acid Induced by AAPH Radical (%) [3]: inactive and no
- OH% (hydroxyl radical scavenging) [4]: 86.1%
- ABTS% (ABTS radical cation decolorization) [5]: 2.6%

- IC50 (soybean lipoxygenase): 10 µM
Compound: CC1CCCCC1NC(=O)c1c(O)c2ccccc2n(C)c1=O (stereo not drawn) [Compound 3h, 4-hydroxy-1-methyl-N-(2-methylcyclohexyl)-2-oxo-1,2-dihydroquinoline-3-carboxamide]
- PMS% (superoxide anion radical scavenging) [1]: no
- Interaction with the Free Radical DPPH (%) ([2]; 20 min): 6.0%
- Interaction with the Free Radical DPPH (%) ([2]; 60 min): 8.1%
- Inhibition of Lipid Peroxidation of Linoleic Acid Induced by AAPH Radical (%) [3]: 31%
- OH% (hydroxyl radical scavenging) [4]: 78.6%
- ABTS% (ABTS radical cation decolorization) [5]: no

- IC50 (soybean lipoxygenase): 315 µM
Compound: Cc1ccccc1NC(=O)c1c(O)c2ccccc2n(C)c1=O [Compound 3k, 4-hydroxy-1-methyl-2-oxo-N-(o-tolyl)-1,2,dihydroquinoline-3carboxamide]
- PMS% (superoxide anion radical scavenging) [1]: 61.5%
- Interaction with the Free Radical DPPH (%) ([2]; 20 min): 1.4%
- Interaction with the Free Radical DPPH (%) ([2]; 60 min): 11.8%
- DPPH radical scavenging activity, time not specified [2]: inactive
- Inhibition of Lipid Peroxidation of Linoleic Acid Induced by AAPH Radical (%) [3]: 41.4%
- OH% (hydroxyl radical scavenging) [4]: totally inactive and no
- ABTS% (ABTS radical cation decolorization) [5]: 54.5%

- IC50 (soybean lipoxygenase): 45 µM
Compound: Cc1ccc(NC(=O)c2c(O)c3ccccc3n(C)c2=O)cc1 [Compound 3l, 4-hydroxy-1-methyl-2-oxo-N-(p-tolyl)-1,2-dihydroquinoline-3-carboxamide]
- PMS% (superoxide anion radical scavenging) [1]: no
- Interaction with the Free Radical DPPH (%) ([2]; 20 min): 2.6%
- Interaction with the Free Radical DPPH (%) ([2]; 60 min): 2.6%
- DPPH radical scavenging activity, time not specified [2]: inactive
- Inhibition of Lipid Peroxidation of Linoleic Acid Induced by AAPH Radical (%) [3]: no
- OH% (hydroxyl radical scavenging) [4]: 53.7%
- ABTS% (ABTS radical cation decolorization) [5]: no

- Inhibition of Soybean Lipoxygenase % at 0.1 mM (soybean lipoxygenase): no
Compound: Cn1c(=O)c(C(=O)NCCc2ccc(O)cc2)c(O)c2ccccc21 [Compound 3o, 4-hydroxy-N-(4-hydroxyphenethyl)-1-methyl-2-oxo-1,2-dihydroquinoline-3-carboxamide]
- PMS% (superoxide anion radical scavenging) [1]: no
- Interaction with the Free Radical DPPH (%) ([2]; 20 min): 20.8%
- Interaction with the Free Radical DPPH (%) ([2]; 60 min): 8.0%
- Inhibition of Lipid Peroxidation of Linoleic Acid Induced by AAPH Radical (%) [3]: 100%
- OH% (hydroxyl radical scavenging) [4]: 44.3%
- ABTS% (ABTS radical cation decolorization) [5]: 20.6%

- melting point: 161 °C
Compound: CCn1c(=O)c(C(=O)NCCN)c(O)c2ccccc21 [Compound 7, N-(2-Aminoethyl)-1-ethyl-4-hydroxy-2-oxo-1,2-dihydroquinoline-3-carboxamide]
